Data published in publication PMC3330251 (Journal of Medicinal Chemistry, 2012).

Columns and labels:
[1] = test system: P. falciparum (erythrocytic stage, K1 strain); details: relative to the standard (chloroquine)
[2] = test system: L. donovani (axenic amastigote stage, MHOM-ET-67/L82); details: relative to 1d
[3] = cited from earlier work
[4] = human liver microsomes; cited from earlier work
[5] = test system: potassium ion channel coded by hERG; details: compound concentration as high as 300 µM; cited from earlier work

O=C(NC(=O)c1ccccc1O)c1ccc2ccccc2c1 [Compound 1t, N-(2-Hydroxybenzoyl)-2-naphthamide]
fold less active than the standard against malaria parasites [1]: 2 fold

O=C(NC(=O)c1ccccc1O)c1ccc(C(F)(F)F)cc1 [Compound 1g, 2-Hydroxy-N-(4-(trifluoromethyl)benzoyl)benzamide]
times less potent than 1d against L. donovani [2]: 4 times

OC(Cn1cncn1)(Cn1cncn1)c1ccc(F)cc1F [fluconazole, reference compound]
protein binding in human plasma [3]: 23.7%

CCc1ccc(C(=O)NC(=O)c2ccccc2O)cc1 [Compound 1a, N-(4-Ethylbenzoyl)-2-hydroxybenzamide]
intrinsic clearance / metabolism rate in HLM [4]: 282 µL/min/mg proteins | hERG inhibition [5]: not inhibited | protein binding in human plasma [3]: 99.9%
